Test results: patent US9056840B2, “Coelenterazine analogues and coelenteramide analogues” (JNC Corporation, priority 2010, dated 2015)

How the values were obtained:
Format in all cases: physicochemical
[1] = biological target: T1, apoaequorin (Aequorea victoria, UniProt P07164); assay: Fluorescence spectra of semi-synthetic BFP (coelenteramide analogue + apoaequorin, CaCl2); conditions: 10 mM CaCl2 buffer, excitation 337 nm
T1 construct: purchased Chisso Corporation
Method: Semi-synthetic gFP was prepared from recombinant apoaequorin and coelenteramide analogues as follows. In 1 ml of 50 mM Tris-HC 1 (pH 7.6) containing 10 mM CaCl2 and 1 mM DTT, apoaequorin (0.2 mg) was mixed with 8 μl of a coelenteramide analogue (1 μg/μl in anhydrous methanol). The mixture was allowed to stand at 4° C. for 16 hours to prepare semi-synthetic BFP-like protein (hereinafter sometimes simply referred to as “semi-synthetic BFP”).
(§1) The fluorescence spectra were determined as follows. For coelenteramide analogue alone, the fluorescence was measured according to the procedures for semi-synthetic gFP and semi-synthetic BFP described in EXAMPLES 11 and 12, except for in the absence of apoaequorin, using 1 ml of 50 mM Tris-HCl (pH 7.6) containing 10 mM EDTA and 1 mM DTT or 1 ml of 50 mM Tris-HCl (pH 7.6) containing 10 mM CaCl2 and 1 mM DTT, in the final concentration of coelenteramide analogue adjusted to 8 μg/ml. The fluorescence spectra were measured at 25° C. in a quartz cell (10 mm light path length) using a Jasco FP-6500 spectrofluorometer (excitation wavelength: 337 nm, emission/excitation bandwidth: 3 nm; response: 0.5 sec, scan speed, 1000 nm/min).

[2] = biological target: T1, apoaequorin; assay: Fluorescence spectra of semi-synthetic gFP (coelenteramide analogue + apoaequorin, EDTA); conditions: 10 mM EDTA buffer, excitation 337 nm
Method: Semi-synthetic gFP was prepared from recombinant apoaequorin and coelenteramide analogues as follows. In 1 ml of 50 mM Tris-HC 1 (pH 7.6) containing 10 mM EDTA and 1 mM DTT, apoaequorin (0.2 mg) was mixed with 8 μl of a coelenteramide analogue (1 μg/μl in anhydrous methanol). The mixture was allowed to stand 4° C. for 16 hours to prepare semi-synthetic gFP-like protein (hereinafter sometimes simply referred to as “semi-synthetic gFP”).
as §1

[3] = Fluorescence spectra of coelenteramide analogue alone (absence of apoaequorin); conditions: analogue alone 8 μg/ml; for Coelenteramide (Buffer containing CaCl2) Fluorescence intensity (rlu) / Coelenteramide (Buffer containing CaCl2) Maximum fluorescence wavelength λmax (nm): 10 mM CaCl2 buffer pH 7.6, excitation 337 nm; for Coelenteramide (EDTA-containing buffer) Fluorescence intensity (rlu) / Coelenteramide (EDTA-containing buffer) Maximum fluorescence wavelength λmax (nm): 10 mM EDTA buffer pH 7.6, excitation 337 nm
Method: as §1

T1 sequence (P07164 other isoform, or with tags, fused parts or gaps with the stated changes): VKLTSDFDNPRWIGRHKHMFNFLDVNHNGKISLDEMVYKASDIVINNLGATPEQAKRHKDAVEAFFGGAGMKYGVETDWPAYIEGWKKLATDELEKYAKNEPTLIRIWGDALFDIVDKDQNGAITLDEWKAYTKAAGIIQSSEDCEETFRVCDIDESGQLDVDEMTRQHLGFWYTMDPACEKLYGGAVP

| SMILES | Fluorescence intensity [1] [rlu] | Semi-synthetic BFP (Buffer containing CaCl2) Maximum fluorescence wavelength λmax (nm) [1] [nm] | Semi-synthetic gFP (EDTA-containing buffer) Fluorescence intensity (rlu) [2] [rlu] | Semi-synthetic gFP (EDTA-containing buffer) Maximum fluorescence wavelength λmax (nm) [2] [nm] | Coelenteramide (Buffer containing CaCl2) Fluorescence intensity (rlu) [3] [rlu] | Coelenteramide (Buffer containing CaCl2) Maximum fluorescence wavelength λmax (nm) [3] [nm] | Coelenteramide (EDTA-containing buffer) Fluorescence intensity (rlu) [3] [rlu] | Coelenteramide (EDTA-containing buffer) Maximum fluorescence wavelength λmax (nm) [3] [nm] |
| --- | --- | --- | --- | --- | --- | --- | --- | --- |
| C=C(c1ccccc1)c1nc(-c2ccc(O)cc2)cnc1NC(=O)Cc1ccc(O)cc1 [Compound 4c, 2-(4-Hydroxyphenyl)-N-[5-(4-hydroxyphenyl)-3-(1-phenylvinyl)pyrazin-2-yl]acetamide] | 25.6 | 492.5 | 32.1 | 499.0 | 12.4 | 471.0 | 11.8 | 475.5 |
| O=C(Nc1ncc(-c2ccc(O)cc2)nc1Cc1ccccc1)c1cccc2cc(O)ccc12 [Compound 4z, N-[3-Benzyl-5-(4-hydroxyphenyl)pyrazin-2-yl]-6-hydroxy-1-naphthamide] | 24.6 | 487.0 | 246.3 | 492.5 | 13.2 | 410.5 | 20.2 | 409.5 |
| O=C(Cc1ccc(O)cc1)Nc1ncc(-c2ccc(O)cc2)nc1-c1ccc(O)cc1 [Compound 4j, N-[3,5-Bis(4-hydroxyphenyl)pyrazin-2-yl]-2-(4-hydroxyphenyl)acetamide] | 100.5 | 489.0 | 69.7 | 492.5 | 22.4 | 481.0 | 22.5 | 482.5 |
| O=C(Cc1ccc(O)cc1)Nc1cnc(-c2ccc(O)cc2)cn1 [Compound 4s, 2-(4-Hydroxyphenyl)-N-[5-(4-hydroxyphenyl)pyrazin-2-yl]acetamide] | 22.1 | 408.5 | 106.4 | 460.0 | 2.0 | 468.5 | 1.9 | 457.5 |
| O=C(Cc1ccc(O)cc1)Nc1ncc(-c2ccc(O)cc2)nc1CCc1ccccc1 [Compound 4r, 2-(4-Hydroxyphenyl)-N-[5-(4-hydroxyphenyl)-3-phenethylpyrazin-2-yl]acetamide] | 159.9 | 468.0 | 176.4 | 468.0 | 10.2 | 483.0 | 10.3 | 481.0 |
| O=C(Cc1ccc(O)cc1)Nc1ncc(-c2ccc(O)cc2)nc1-c1csc2ccccc12 [Compound 4i, N-[3-(Benzo[b]thiophen-3-yl)-5-(4-hydroxyphenyl)pyrazin-2-yl]-2-(4-hydroxyphenyl) acetamide] | 80.0 | 494.0 | 106.5 | 512.5 | 11.8 | 468.0 | 12.1 | 471.5 |
| O=C(Cc1ccc(O)cc1)Nc1ncc(-c2ccc(O)cc2)nc1-c1ccccc1 [Compound 4a, 2-(4-Hydroxyphenyl)-N-[5-(4-hydroxyphenyl)-3-phenylpyrazin-2-yl]acetamide] | 148.9 | 507.5 | 82.9 | 521.5 | 2.0 | 467.5 | 1.9 | 471.0 |
| O=C(Cc1ccc(O)cc1)Nc1ncc(-c2ccc(O)cc2)nc1/C=C/c1ccccc1 [Compound 4b] | 52.7 | 544.5 | 43.2 | 530.0 | 9.4 | 494.5 | 7.1 | 495.5 |
| O=C(Cc1ccc(O)cc1)Nc1ncc(-c2ccc(O)cc2)nc1-c1cc2sccc2s1 [Compound 4k, 2-(4-Hydroxyphenyl)-N-[5-(4-hydroxyphenyl)-3-(thieno[3,2-b]thiophen-2-yl)pyrazin-2-yl]acetamide] | 148.2 | 538.5 | 139.9 | 532.0 | 9.7 | 491.0 | 10.3 | 487.5 |
| O=C(Cc1ccc(O)cc1)Nc1ncc(-c2ccc(O)cc2)nc1-c1ccsc1 [Compound 4g, 2-(4-Hydroxyphenyl)-N-[5-(4-hydroxyphenyl)-3-(thiophen-3-yl)pyrazin-2-yl]acetamide] | 195.7 | 501.5 | 108.5 | 512.5 | 6.1 | 470.5 | 5.5 | 473.0 |
| O=C(Cc1ccc(O)cc1)Nc1ncc(-c2ccc(O)cc2)nc1-c1cccc2ccccc12 [Compound 4d, 2-(4-Hydroxyphenyl)-N-[5-(4-hydroxyphenyl)-3-(naphthalen-1-yl)pyrazin-2-yl]acetamide] | 98.3 | 487.0 | 58.8 | 504.5 | 12.9 | 463.5 | 12.4 | 462.5 |
